Measurements as given in patent US9278958B2, “Anti-cancer compounds” (KATHOLIEKE UNIVERSITEIT LEUVEN, priority 2012, dated 2016).
Like-named read-outs stand apart in the source and are kept apart here.

Columns and labels:
[1] = tested on: U937, human monocytic cells; assay: Cytostatic assay, U937; type: cell-based; settings: U-937, Table 2
Procedure: (§1) To each well of a 96-well microtiter plate were added 5-7.5×10^4 cells and a given amount of the test compound. The cells were allowed to proliferate for 48 h to 96 h (depending on the nature of the cell line) at 37° C. in a humidified CO2-controlled atmosphere. At the end of the incubation period, the cells were counted in a Coulter Counter (Coulter Electronics Ltd, Harpenden Herts, United Kingdom).

Huh-7 hepatoma cells = assay: Cytostatic assay, Huh-7; type: cell-based; settings: Homo sapiens, Table 4
Procedure: as §1

[2] = tested on: DNA synthesis in Raji cells; assay: Antimetabolic activity assay, [CH3-3H]dThd incorporation (DNA synthesis), Raji; type: cell-based; settings: Homo sapiens, incorporation into TCA-insoluble material
Procedure: [The procedure below names another cell line; the source lists this cell line under the same test.] (§2) Radiolabeled precursors of DNA synthesis ([^3H-methyl]dThd), RNA synthesis ([5-^3H]Urd), and protein synthesis ([4,5-^3H]leu) were added to 10^5 CEM cell cultures in the 200 μl-wells of a microtiter plate at 1 μCi for each precursor in the presence of varying concentrations of the test compounds (5-fold dilution series). The cells were allowed to proliferate for 20 hrs at 37° C. in a humidified, CO2-controlled atmosphere. At the end of the incubation period, the contents of the wells were brought onto 25-mm glass fiber filters and further processed for measurement of acid-insoluble radioactivity.

CEM cells = assay: Cytostatic assay, CEM; type: cell-based; settings: Homo sapiens, CCRF-CEM
Outline: (§3)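 A density of 5-7.5×10^4 cells per well is treated with compound. Incubation lasts 48 h to 96 h according to cell type, in humidified, CO2-controlled conditions at 37° C, after which cells are enumerated electronically.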

Molt4/C8 cells = assay: Cytostatic assay, Molt4/C8; type: cell-based; settings: Table 2
Procedure: as §1

[3] = tested on: THP-1, human monocytic cells; assay: Cytostatic assay, THP-1; type: cell-based; settings: Table 2
Procedure: as §1

[4] = tested on: RNA synthesis in Raji cells; assay: Antimetabolic activity assay, [5-3H]uridine incorporation (RNA synthesis), Raji; type: cell-based; settings: Homo sapiens, incorporation into TCA-insoluble material
Procedure: [The procedure below names another cell line; the source lists this cell line under the same test.] as §2

MT-4 cells = assay: Cytostatic assay, MT-4; type: cell-based; settings: Homo sapiens, MT4; Table 2
Procedure: as §1

[5] = tested on: HT29 colorectal carcinoma cells; assay: Cytostatic assay, HT29; type: cell-based; settings: Homo sapiens, HT-29; Table 3
Procedure: as §1

[6] = tested on: MCF-7 mammary carcinoma cells; assay: Cytostatic assay, MCF-7; type: cell-based; settings: Homo sapiens, MCF7; Table 3
Procedure: as §1

[7] = tested on: FM3A mammary carcinoma cells; assay: Cytostatic assay, FM3A; type: cell-based, murine; settings: Mus musculus, Table 3
Procedure: as §1

[8] = tested on: BAEC aortic endothelial cells; assay: Cytostatic assay, BAEC; type: cell-based, bovine; settings: Bos taurus, Table 3
Procedure: as §1

C8166 cells = assay: Cytostatic assay, C8166; type: cell-based; settings: Homo sapiens, Table 2
Procedure: as §1

Sup T1 cells = assay: Cytostatic assay, Sup T1; type: cell-based; settings: Homo sapiens, Table 2, read-out: Cytostatic activity (μM) Sup T 1
Procedure: as §1

BPH-1 (UZ) = assay: Cytostatic assay, BPH-1 (UZ); type: cell-based; settings: Homo sapiens, Table 4
Procedure: as §1

[9] = tested on: Caki-1 kidney carcinoma cells; assay: Cytostatic assay, Caki-1; type: cell-based; settings: Homo sapiens, Table 3
Procedure: as §1

[10] = tested on: PC3 (rega) prostate cancer cells; assay: Cytostatic assay, PC3 (rega); type: cell-based; settings: Table 4
Procedure: as §1

[11] = tested on: PNT1A (UZ) prostate cells; assay: Cytostatic assay, PNT1A (UZ); type: cell-based; settings: Homo sapiens, Table 4
Procedure: as §1

[12] = tested on: HL60, human leukemia cells; assay: Cytostatic assay, HL-60; type: cell-based; settings: Table 2
Procedure: as §1

[13] = tested on: DNA synthesis in CEM cells; assay: Antimetabolic activity assay, [CH3-3H]dThd incorporation (DNA synthesis), CEM; type: cell-based; settings: Homo sapiens, CCRF-CEM, incorporation into TCA-insoluble material
Procedure: as §2

[14] = tested on: OST TK- osteosarcoma cells; assay: Cytostatic assay, OST TK-; type: cell-based; settings: Homo sapiens; Table 3
Procedure: as §1

[15] = tested on: protein synthesis in Raji cells; assay: Antimetabolic activity assay, [4,5-3H]leucine incorporation (protein synthesis), Raji; type: cell-based; settings: Homo sapiens, incorporation into TCA-insoluble material
Procedure: [The procedure below names another cell line; the source lists this cell line under the same test.] as §2

[16] = tested on: HEL embryonic lung fibroblast cells; assay: Cytostatic assay, HEL; type: cell-based; settings: Homo sapiens, Table 3
Procedure: as §1

[17] = tested on: 22Rv1 (UZ) prostate cancer cells; assay: Cytostatic assay, 22Rv1 (UZ); type: cell-based; settings: Homo sapiens, Table 4
Procedure: as §1

[18] = tested on: Raji, human B-lymphoma cells; assay: Cytostatic assay, Raji; type: cell-based; settings: Table 2
Procedure: as §1

U87 glioma cells = assay: Cytostatic assay, U87; type: cell-based; settings: Homo sapiens, U-87 MG; Table 3
Procedure: as §1

[19] = tested on: LNCaP (UZ) prostate cancer cells; assay: Cytostatic assay, LNCaP (UZ); type: cell-based; settings: Homo sapiens, Table 4
Procedure: as §1

[20] = tested on: PC-3 (UZ) prostate cancer cells; assay: Cytostatic assay, PC-3 (UZ); type: cell-based; settings: Table 4
Procedure: as §1

PLC/PRF/5 hepatoma cells = assay: Cytostatic assay, PLC/PRF/5; type: cell-based; settings: Homo sapiens, Table 4
Procedure: as §1

HUT-78 cells = assay: Cytostatic assay, HUT-78; type: cell-based; settings: Homo sapiens, HuT78; Table 2
Procedure: as §1

[21] = tested on: 293T embryonic kidney cells; assay: Cytostatic assay, 293T; type: cell-based; settings: Homo sapiens, HEK-293T; Table 3
Procedure: as §1

[22] = tested on: HeLa cervix carcinoma cells; assay: Cytostatic assay, HeLa; type: cell-based, human; settings: Homo sapiens; Table 3; read-out: Cytostatic activity (μM) Hela
Outline: as §3

[23] = tested on: protein synthesis in CEM cells; assay: Antimetabolic activity assay, [4,5-3H]leucine incorporation (protein synthesis), CEM; type: cell-based; settings: Homo sapiens, CCRF-CEM, incorporation into TCA-insoluble material
Procedure: as §2

[24] = tested on: DU145 (UZ) prostate cancer cells; assay: Cytostatic assay, DU145 (UZ); type: cell-based; settings: Homo sapiens, DU-145; Table 4
Procedure: as §1

HepG2C3A hepatoma cells = assay: Cytostatic assay, HepG2C3A; type: cell-based; settings: Homo sapiens, HepG2/C3A; Table 4
Procedure: as §1

[25] = tested on: Caki-2 kidney carcinoma cells; assay: Cytostatic assay, Caki-2; type: cell-based; settings: Homo sapiens, Table 3
Procedure: as §1

[26] = tested on: RNA synthesis in CEM cells; assay: Antimetabolic activity assay, [5-3H]uridine incorporation (RNA synthesis), CEM; type: cell-based; settings: Homo sapiens, CCRF-CEM, incorporation into TCA-insoluble material
Procedure: as §2

MT-2 cells = assay: Cytostatic assay, MT-2; type: cell-based; settings: Homo sapiens, MT2; Table 2
Procedure: as §1

L1210 cells = assay: Cytostatic assay, L1210; type: cell-based; settings: Mus musculus, Table 2
Procedure: as §1

[27] = Table 1a, read-out: IC50 μM (CEM)
[28] = Table 2, read-out: Cytostatic activity (μM) CEM

| IC50 [1] | IC50 (Huh-7 hepatoma cells) | IC50 [2] | IC50 (CEM cells; [28]) | IC50 (Molt4/C8 cells) | IC50 [3] | IC50 [4] | IC50 [5] | IC50 [6] | IC50 [7] | IC50 [8] | IC50 (C8166 cells) | IC50 (Sup T1 cells) | IC50 (BPH-1 (UZ)) | IC50 [9] | IC50 [10] | IC50 [11] | IC50 [12] | IC50 [13] | SMILES | IC50 (MT-4 cells) | also measured |
| --- | --- | --- | --- | --- | --- | --- | --- | --- | --- | --- | --- | --- | --- | --- | --- | --- | --- | --- | --- | --- | --- |
| 4.2 ± 0.07 µM | 2.2 ± 0.49 µM | 82 ± 6 µM | 1.6 ± 0.071 µM | 0.42 ± 0.11 µM | 3.1 ± 0.07 µM | ≥ 100 µM | 1.8 ± 0.21 µM | 0.93 ± 0.23 µM | 2.5 ± 0.28 µM | 2 ± 0.28 µM | 1.4 ± 0.76 µM | 0.61 ± 0.26 µM | 1.3 ± 0.071 µM | 2.5 ± 0.6 µM | 0.36 ± 0.18 µM | 0.77 ± 0.31 µM | 0.89 ± 0.3 µM | 7.5 ± 5.5 µM | COC(=O)c1cc(CCc2cc(OC)ccc2OC)sc1N [TR584, 2-Amino-5-[2-(2,5-dimethoxy-phenyl)-ethyl]-thiophene-3-carboxylic acid methyl ester] | 1.6 ± 0.21 µM | IC50 (CEM cells; [27]): 1.6 µM; IC50 [14]: 0.68 ± 0.33 µM; IC50 [15]: 62 ± 1 µM; IC50 [16]: 0.87 ± 0.014 µM; IC50 [17]: 0.31 ± 0.087 µM; IC50 [18]: 2.2 ± 0.28 µM; IC50 (U87 glioma cells): 1.8 ± 0.071 µM; IC50 [19]: 0.38 ± 0.11 µM; IC50 [20]: 0.81 ± 0.42 µM; IC50 (PLC/PRF/5 hepatoma cells): 1.3 ± 0.21 µM; IC50 (HUT-78 cells): 2.6 ± 2.1 µM; IC50 [21]: 1.9 µM; IC50 [22]: 0.83 ± 0.25 µM; IC50 [23]: 1.1 ± 0.5 µM; IC50 [24]: 1.6 µM; IC50 (HepG2C3A hepatoma cells): 4.5 ± 1.7 µM; IC50 [25]: 0.93 ± 0.28 µM; IC50 [26]: 2.4 ± 0.2 µM; IC50 (MT-2 cells): 4.2 ± 0.79 µM |
| 3.4 ± 2.8 µM | 8.3 ± 0.78 µM | ≥ 100 µM | 8.3 ± 2.4 µM | 2 ± 0.2 µM | 3.8 ± 0.6 µM | ≥ 100 µM | 8.9 ± 0.92 µM | 5.42 ± 0.69 µM | 25 ± 0.71 µM | 9.7 ± 1.8 µM | 16 ± 6.5 µM | 4.7 ± 0.38 µM | 7 ± 0.42 µM | 4.6 ± 1.3 µM | 1.7 ± 0.35 µM | 8 ± 0.42 µM | 3.5 ± 0.57 µM | > 100 µM | COc1ccccc1CCc1cc(C#N)c(N)s1 [TR585, 2-Amino-5-[2-(2-methoxy-phenyl)-ethyl]-thiophene-3-carbonitrile] | 8.1 ± 0.78 µM | IC50 (CEM cells; [27]): 8.3 µM; IC50 [14]: 3.96 ± 1.56 µM; IC50 [15]: ≥ 100 µM; IC50 [16]: 7.2 ± 0.49 µM; IC50 [17]: 9.4 ± 5.8 µM; IC50 [18]: 13 ± 3.5 µM; IC50 (U87 glioma cells): 10 ± 0.78 µM; IC50 [19]: 2.7 ± 0.95 µM; IC50 [20]: 2.6 ± 0.64 µM; IC50 (PLC/PRF/5 hepatoma cells): 6.7 ± 0.64 µM; IC50 (L1210 cells): 15 ± 4 µM; IC50 (HUT-78 cells): 7.1 ± 1.3 µM; IC50 [21]: 10 ± 0.071 µM; IC50 [22]: 8.3 ± 1.5 µM; IC50 [23]: 11 ± 8 µM; IC50 [24]: 6.4 ± 1.8 µM; IC50 (HepG2C3A hepatoma cells): 7.2 ± 4 µM; IC50 [25]: 4.8 ± 4.5 µM; IC50 [26]: ≥ 100 µM; IC50 (MT-2 cells): 4.75 ± 0.08 µM |
| 20 ± 15 µM | 34 ± 14 µM | 25 ± 16 µM | 20 ± 6 µM | 24 ± 17 µM | 20 ± 1.4 µM | 31 ± 19 µM | 43 ± 4.2 µM | 27 ± 19 µM | 33 ± 9 µM | 31 ± 4.2 µM | 25 ± 3.5 µM | 4.1 ± 0.4 µM | 28 ± 3.5 µM | 24 ± 0.7 µM | 12 ± 2.1 µM | 31 ± 0.71 µM | 17 ± 0.7 µM | 17 ± 8 µM | CCOC(=O)c1c(N)sc(CCc2cc(OC)ccc2OC)c1C(=O)OCC [TR592, 2-Amino-5-[2-(2,5-dimethoxy-phenyl)-ethyl]-thiophene-3,4-dicarboxylic acid diethyl ester] | 36 ± 16 µM | IC50 [14]: 17 ± 5.7 µM; IC50 [15]: 23 ± 7 µM; IC50 [16]: 35 ± 6.4 µM; IC50 [17]: 14 ± 8.3 µM; IC50 [18]: 41 ± 7.1 µM; IC50 (U87 glioma cells): 39 ± 2.8 µM; IC50 [19]: 4.1 ± 3.6 µM; IC50 [20]: 8.5 ± 0.85 µM; IC50 (PLC/PRF/5 hepatoma cells): 25 µM; IC50 (HUT-78 cells): 26 ± 3.5 µM; IC50 [21]: 30 ± 7.1 µM; IC50 [22]: 11 ± 3 µM; IC50 [23]: 17 µM; IC50 [24]: 18 ± 2.1 µM; IC50 (HepG2C3A hepatoma cells): 34 ± 12 µM; IC50 [25]: 42 ± 2.1 µM; IC50 [26]: 31 ± 22 µM; IC50 (MT-2 cells): 8.1 ± 1.2 µM |
